Earlier results in patent US20220287943A1, “METHOD FOR TREATING KERATIN MATERIAL, COMPRISING THE APPLICATION OF AN ORGANIC C1-C6-ALKOXY-SILANE AND AN AMINO ACID AND/OR AMINO ACID DERIVATIVE” (Henkel AG & Co. KGaA, priority 2019, published 2022).

Conditions: for solubility in water: about 25° C.

| solubility in water (in words) (at about 25° C.) | solubility in water | Compound |
| --- | --- | --- |
| highly soluble in water | – | O=C([O-])C1=NN(c2ccc(S(=O)(=O)[O-])cc2)C(=O)C1N=Nc1ccc(S(=O)(=O)[O-])cc1.[Na+].[Na+].[Na+] (stereo not drawn) [Acid Yellow 23, trisodium salt of 4,5-dihydro-5-oxo-1-(4-sulfophenyl)-4-((4-sulfophenyl)azo)-1H-pyrazole-3-carboxylic acid] |
| – | about 2.5 g/L | Nc1cc(S(=O)(=O)[O-])cc2cc(S(=O)(=O)[O-])c(N=Nc3ccccc3)c(O)c12.[Na+].[Na+] [Acid Red 33, diantrium salt of 5-amino-4-hydroxy-3-(phenylazo)-naphthalene-2,7-disulphonate] |
| – | more than 7 g/L | O=S(=O)([O-])c1ccc(N=Nc2c(O)ccc3ccccc23)cc1.[Na+] [Acid Orange 7, sodium salt of 4-[(2-hydroxy-1-naphthy)azo]lbenzene sulphonate] |
